Experimental findings from patent US8063225B2, “Tricyclic compound derivatives useful in the treatment of neoplastic diseases, inflammatory disorders and immunomodulatory disorders” (Chembridge Corporation, priority 2006, dated 2011) are described below.

The subject of one experiment is Karpas-299. Put plainly: Cell proliferation inhibition, Cell Titer-Glo, Karpas-299. The class given is cell-based. Conditions: Homo sapiens; cell proliferation assay, Karpas-299 cells. In short, it runs like this:
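Karpas 299 cells were seeded into white, clear-bottomed 384-well culture plates at 2500-5000 cells per well and exposed to serial dilutions of test compounds for about 3 days. Viable cell numbers were then measured with the Cell Titer-Glo Luminescent Cell Viability Assay (Promega), which detects total ATP, and IC50 values for proliferation inhibition were derived.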
A general note: Cellular ATP, detected with luciferase, serves as a proxy for viable cell number.

The next experiment deals with H929 (multiple myeloma). Put plainly: Cell proliferation inhibition, Cell Titer-Glo, H929. The format is cell-based. The note with it: Homo sapiens, NCI-H929; cell proliferation assay, H929 cells. In outline: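 Cells seeded at 2500-5000 per well with serially diluted compound for typically 3 days. Viable cells measured by ATP luminescence (Cell Titer-Glo); IC50 from proliferation-inhibition curves.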

A further experiment addresses T1, Jak2 (Homo sapiens, UniProt O60674).
T1 construct: 6×His- or GST-tagged kinase domain fragments of the corresponding RTKs expressed in baculovirus system; host or cells: baculovirus system
The experiment in a line: Tyrosine kinase assay (Kinase-Glo or AlphaScreen), Jak2. Conditions: biochemical tyrosine kinase assay. In outline: (§1)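 Recombinant His- or GST-tagged kinase domains from baculovirus were assayed with poly(Glu-Tyr, 4:1) substrate and 10 μM ATP in Tris-HCl pH 7.5 with Mg2+/Mn2+. Kinase-Glo: 37° C for 60 minutes, residual ATP read by luminescence. IC50 from non-linear regression over eight concentrations, 1 nM to 20 μM.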
On the technique in general: In Kinase-Glo more light means more ATP remaining.

For a further experiment, the system named is K562. Put plainly: Cell proliferation inhibition, Cell Titer-Glo, K562. The class given is cell-based. The note with it: Homo sapiens; cell proliferation assay, K562 cells. In short, it runs like this: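 K562 cells were seeded at 2500-5000 cells per well in white, clear-bottomed 384-well culture plates and treated with dilutions of test compounds for typically 3 days. Viable cells were quantified with the Cell Titer-Glo Luminescent Cell Viability Assay (Promega), which measures total ATP, read on a luminescence plate reader to derive IC50 values for proliferation inhibition.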

A further experiment concerns the target T2, Alk (Homo sapiens, UniProt Q9UM73).
T2 construct: 6×His- or GST-tagged kinase domain fragments of the corresponding RTKs expressed in baculovirus system; host or cells: baculovirus system
The experiment in a line: Tyrosine kinase assay (Kinase-Glo or AlphaScreen), Alk. Conditions: biochemical tyrosine kinase assay. In outline:
as §1

The target of a further experiment is T3, InsR (Homo sapiens, UniProt P06213).
T3 construct: 6×His- or GST-tagged kinase domain fragments of the corresponding RTKs expressed in baculovirus system; host or cells: baculovirus system
T3 sequence (P06213 1023-1298 limits assumed, species assumed): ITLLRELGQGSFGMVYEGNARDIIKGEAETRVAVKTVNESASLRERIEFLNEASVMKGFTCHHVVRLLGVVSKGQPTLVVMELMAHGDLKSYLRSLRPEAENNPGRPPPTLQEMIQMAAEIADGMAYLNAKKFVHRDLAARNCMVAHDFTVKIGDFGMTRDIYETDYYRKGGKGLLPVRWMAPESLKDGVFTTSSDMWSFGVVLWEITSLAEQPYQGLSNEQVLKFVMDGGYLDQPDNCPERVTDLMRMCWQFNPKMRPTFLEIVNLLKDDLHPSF
The experiment in a line: Tyrosine kinase assay (Kinase-Glo or AlphaScreen), InsR. The note with it: biochemical tyrosine kinase assay. In outline:
as §1

The test system of another experiment is Ba/F3. Put plainly: Cell proliferation inhibition, Cell Titer-Glo, Ba/F3. The format is cell-based. The note with it: Mus musculus, BaF3; cell proliferation assay, Ba/F3 cells. In outline: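 Ba/F3 cells were seeded at 2500-5000 cells per well in white, clear-bottomed 384-well culture plates and exposed to serial dilutions of test compounds for 3 days. Cell Titer-Glo Luminescent Cell Viability Assay (Promega) reagent, which measures total ATP as an indicator of metabolic activity, was added. Luminescence was read on a multiwell plate reader to derive IC50 values for inhibition of proliferation.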

Structures are written as SMILES. Some results are limits rather than exact numbers.

One may read the IC50 as the concentration at which inhibition is half-maximal. Higher therefore signals weaker potency.

T2 sequence (Q9UM73 1116-1392 limits assumed, species assumed): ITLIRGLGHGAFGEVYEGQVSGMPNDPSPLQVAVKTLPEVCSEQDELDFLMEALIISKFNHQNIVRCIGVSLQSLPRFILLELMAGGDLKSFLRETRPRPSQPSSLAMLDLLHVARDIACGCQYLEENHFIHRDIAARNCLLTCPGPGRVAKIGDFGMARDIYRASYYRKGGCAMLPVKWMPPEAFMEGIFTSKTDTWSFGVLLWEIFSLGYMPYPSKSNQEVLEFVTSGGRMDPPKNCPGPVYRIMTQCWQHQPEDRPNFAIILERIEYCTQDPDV
T1 sequence (O60674 849-1124 limits assumed, species assumed): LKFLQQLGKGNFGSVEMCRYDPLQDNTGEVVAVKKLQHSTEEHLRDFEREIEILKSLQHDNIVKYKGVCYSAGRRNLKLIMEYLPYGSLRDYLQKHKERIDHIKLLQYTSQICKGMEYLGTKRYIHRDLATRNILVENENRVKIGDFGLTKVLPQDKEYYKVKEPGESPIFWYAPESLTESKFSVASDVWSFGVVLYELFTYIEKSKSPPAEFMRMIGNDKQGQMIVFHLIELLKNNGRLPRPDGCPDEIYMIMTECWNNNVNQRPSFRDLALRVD

On to `COc1ccc(OC[C@H](O)CNc2cc[nH]c(=O)c2-c2nc3cc4c(cc3[nH]2)C(=O)N(C2CCN(C)CC2)C4=O)c(OC)c1OC` [compound 93], for which the IC50 was 5 to 15 µM in the experiment on Karpas-299; 0.5 to 5 µM in the experiment with H929 (multiple myeloma); over 15 µM at Jak2; over 15 µM in the experiment with K562; over 15 µM against Alk; under 0.5 µM at InsR. The molecule also showed an IC50 in the experiment on Ba/F3 of over 15 µM.

`Cc1ccc(OC[C@@H](O)CNc2cc[nH]c(=O)c2-c2nc3cc4c(cc3[nH]2)C(=O)N([C@H]2CCN(C)C2)C4=O)c(C)c1` [compound 106]: the IC50 in the experiment with Karpas-299 is over 15 µM; in the experiment on H929 (multiple myeloma), 5 to 15 µM; against Jak2, 0.5 to 5 µM; with K562, 5 to 15 µM; against Alk, 0.5 to 5 µM; on InsR, under 0.5 µM. In the experiment on Ba/F3, the IC50 is 5 to 15 µM.

In the case of `CN1CCC(N2C(=O)c3cc4nc(-c5c(NC[C@@H](O)COc6cccc(-c7ccccc7)c6)cc[nH]c5=O)[nH]c4cc3C2=O)CC1` [compound 89], the IC50 was in the range of 0.5 to 5 µM in the experiment on Karpas-299; 5 to 15 µM in the experiment with H929 (multiple myeloma); 0.5 to 5 µM against Jak2; 5 to 15 µM in the experiment with K562; 0.5 to 5 µM against Alk; 0.5 to 5 µM on InsR. The molecule further came in with an IC50 in the experiment with Ba/F3 of 5 to 15 µM.

Consider `CN1CCC(N2C(=O)c3cc4nc(-c5c(NC[C@@H](O)COc6cccc7ccccc67)cc[nH]c5=O)[nH]c4cc3C2=O)CC1` [compound 87], for which the IC50 was 5 to 15 µM in the experiment on Karpas-299; 5 to 15 µM in the experiment with H929 (multiple myeloma); 0.5 to 5 µM on Jak2; 5 to 15 µM with K562; 0.5 to 5 µM at Alk; under 0.5 µM against InsR. Further, the IC50 with Ba/F3 is over 15 µM.

For `CN1CCC(N2C(=O)c3cc4nc(-c5c(NC[C@@H](O)COc6cccc(OC(F)(F)C(F)F)c6)cc[nH]c5=O)[nH]c4cc3C2=O)CC1` [compound 91], the IC50 with Karpas-299 is 5 to 15 µM; with H929 (multiple myeloma) it was 0.5 to 5 µM; against Jak2, 0.5 to 5 µM; in the experiment with K562, over 15 µM; against Alk, 0.5 to 5 µM; at InsR it was 0.5 to 5 µM. The molecule further showed an IC50 with Ba/F3 of over 15 µM.

In the case of `CN1CCC(N2C(=O)c3cc4nc(-c5c(NC[C@@H](O)COc6cccc(Cl)c6F)cc[nH]c5=O)[nH]c4cc3C2=O)CC1` [compound 96], the IC50 was over 15 µM with Karpas-299; 5 to 15 µM in the experiment on H929 (multiple myeloma); 5 to 15 µM at Jak2; over 15 µM with K562; over 15 µM against Alk; under 0.5 µM against InsR. Further, in the experiment with Ba/F3, the IC50 was over 15 µM.

As for `O=C1c2cc3nc(-c4c(NC[C@@H](O)c5cccc(Cl)c5)cc[nH]c4=O)[nH]c3cc2C(=O)N1[C@H]1CN2CCC1CC2` [compound 34], the IC50 with Karpas-299 was over 15 µM; with H929 (multiple myeloma), 5 to 15 µM; on Jak2, 0.5 to 5 µM; in the experiment on K562, over 15 µM; against Alk, 0.5 to 5 µM; against InsR it was 0.5 to 5 µM. Further, the IC50 with Ba/F3 is over 15 µM.

Regarding `Cc1ccc(OC[C@H](O)CNc2cc[nH]c(=O)c2-c2nc3cc4c(cc3[nH]2)C(=O)N(C2CCN(C)CC2)C4=O)c(C)c1` [compound 59], the IC50 is 0.5 to 5 µM with Karpas-299; 0.5 to 5 µM in the experiment on H929 (multiple myeloma); 0.5 to 5 µM against Jak2; 5 to 15 µM with K562; 0.5 to 5 µM against Alk; under 0.5 µM against InsR. This molecule registered an IC50 with Ba/F3 of 0.5 to 5 µM.

For `Cc1c(Cl)cccc1OC[C@H](O)CNc1cc[nH]c(=O)c1-c1nc2cc3c(cc2[nH]1)C(=O)N(C1CCN(C)CC1)C3=O` [compound 94], the IC50 in the experiment with Karpas-299 was over 15 µM; in the experiment on H929 (multiple myeloma), 5 to 15 µM; at Jak2, 0.5 to 5 µM; with K562, over 15 µM; against Alk, 0.5 to 5 µM; against InsR, under 0.5 µM. Also, the IC50 with Ba/F3 is over 15 µM.

In the case of `C[C@H](O)CN1C(=O)c2cc3nc(-c4c(NC[C@@H](O)c5cccc(Cl)c5)cc[nH]c4=O)[nH]c3cc2C1=O` [compound 31], the IC50 in the experiment on Karpas-299 was over 15 µM; with H929 (multiple myeloma), 0.5 to 5 µM; on Jak2, 5 to 15 µM; with K562, 5 to 15 µM; against Alk it was over 15 µM; at InsR it was 0.5 to 5 µM. The same molecule came in with an IC50 in the experiment on Ba/F3 of over 15 µM.

Regarding `Cc1ncsc1CCN1C(=O)c2cc3nc(-c4c(NC[C@@H](O)c5cccc(Cl)c5)cc[nH]c4=O)[nH]c3cc2C1=O` [compound 32], the IC50 in the experiment on Karpas-299 is over 15 µM; in the experiment on H929 (multiple myeloma), 5 to 15 µM; at Jak2 it was over 15 µM; in the experiment with K562 it was over 15 µM; against Alk, over 15 µM; against InsR, over 15 µM. Besides, the IC50 with Ba/F3 was 0.5 to 5 µM.

On to `CN1CCC(N2C(=O)c3cc4nc(-c5c(NC[C@@H](O)COc6cccc(C(F)(F)F)c6)cc[nH]c5=O)[nH]c4cc3C2=O)CC1` [compound 97], for which the IC50 with Karpas-299 is over 15 µM; in the experiment on H929 (multiple myeloma), 5 to 15 µM; at Jak2, 0.5 to 5 µM; in the experiment on K562 it was over 15 µM; against Alk it was 5 to 15 µM; at InsR it was 0.5 to 5 µM. In the experiment on Ba/F3, this molecule came in with an IC50 of over 15 µM.

Take `Cc1cc(C)c(OC[C@H](O)CNc2cc[nH]c(=O)c2-c2nc3cc4c(cc3[nH]2)C(=O)N(C2CCN(C)CC2)C4=O)c(C)c1` [compound 98]: the IC50 was over 15 µM with Karpas-299; 5 to 15 µM in the experiment with H929 (multiple myeloma); 5 to 15 µM against Jak2; over 15 µM in the experiment on K562; 0.5 to 5 µM against Alk; under 0.5 µM against InsR. The molecule also displayed an IC50 in the experiment on Ba/F3 of over 15 µM.

Turning to `CN1CCC(N2C(=O)c3cc4nc(-c5c(NC[C@@H](O)COc6c(F)ccc(Cl)c6F)cc[nH]c5=O)[nH]c4cc3C2=O)CC1` [compound 95], the IC50 was 5 to 15 µM in the experiment on Karpas-299; 5 to 15 µM in the experiment on H929 (multiple myeloma); 0.5 to 5 µM at Jak2; 5 to 15 µM in the experiment on K562; 0.5 to 5 µM against Alk; under 0.5 µM on InsR. Besides, in the experiment with Ba/F3, the IC50 is over 15 µM.

On to `Cc1cc(C)c(OC[C@H](O)CNc2cc[nH]c(=O)c2-c2nc3cc4c(cc3[nH]2)C(=O)N(C2CCN(C)CC2)C4=O)c(CS(C)(=O)=O)c1` [compound 84], for which the IC50 in the experiment with Karpas-299 is over 15 µM; in the experiment on H929 (multiple myeloma) it was 0.5 to 5 µM; against Jak2, 0.5 to 5 µM; in the experiment with K562, over 15 µM; against Alk, 0.5 to 5 µM; against InsR, 0.5 to 5 µM. This molecule returned an IC50 with Ba/F3 of over 15 µM.

As to `Cc1ccc(OC[C@H](O)CNc2cc[nH]c(=O)c2-c2nc3c(C)c4c(cc3[nH]2)C(=O)N(C2CCN(C)CC2)C4=O)c(C)c1` [compound 110], the IC50 with Karpas-299 is 0.5 to 5 µM; in the experiment on H929 (multiple myeloma), 5 to 15 µM; against Jak2, 0.5 to 5 µM; in the experiment on K562 it was 5 to 15 µM; against Alk, 0.5 to 5 µM; on InsR, under 0.5 µM. Besides, in the experiment on Ba/F3, the IC50 was in the range of 5 to 15 µM.

On to `Cc1ccc2c(ccn2C[C@H](O)CNc2cc[nH]c(=O)c2-c2nc3cc4c(cc3[nH]2)C(=O)N(C2CCN(C)CC2)C4=O)c1` [compound 131], for which the IC50 in the experiment on Karpas-299 is over 15 µM; in the experiment on H929 (multiple myeloma) it was 0.5 to 5 µM; on Jak2, 0.5 to 5 µM; in the experiment on K562 it was 5 to 15 µM; at Alk, 5 to 15 µM; at InsR it was 0.5 to 5 µM. Further, in the experiment on Ba/F3, the IC50 is over 15 µM.
